Assay results from paper PMC8160875 (Molecules, 2021).

Tests used:
[1] = system: NCI-H460 cells; test: MTT cytotoxicity assay, NCI-H460; type: cell-based; conditions: Homo sapiens, NCI-H460 cell line, average of three determinations
Excerpt: (§1) Four human tumor cell lines (A549, H1975, NCI-H460, and MCF-7) and human normal cell line LO2 were selected to evaluate the antiproliferative activity of all target compounds in vitro. Olmutinib was used as a positive control. Results are summarized in Table 1, where the values are the average of at least three independent experiments. […] However, the antiproliferative activities of the compounds that were substituted with the anisidine side chain performed better than the cyano group chain.

[2] = system: H1975 cells; test: MTT cytotoxicity assay, H1975; type: cell-based; conditions: Homo sapiens, NCI-H1975, H1975 cell line, average of three determinations
Excerpt: as §1

[3] = system: LO2 cells; test: MTT cytotoxicity assay, normal cell line LO2; type: cell-based, human; conditions: for IC50: L02, human normal cell line LO2, MTT, average of three determinations; for Selectivity IC50(LO2)/IC50(A549): ratio IC50(LO2)/IC50(A549)
Excerpt: as §1

[4] = system: MCF-7 cells; test: MTT cytotoxicity assay, MCF-7; type: cell-based; conditions: Homo sapiens, MCF7, MCF-7 cell line, average of three determinations
Excerpt: as §1

[5] = system: A549 cells; test: MTT cytotoxicity assay, A549; type: cell-based; conditions: Homo sapiens, A549 cell line, average of three determinations
Excerpt: as §1

[6] = biological target: PI3Kα (Homo sapiens, UniProt P42336); test: Kinase-Glo Luminescent Kinase Assay, PI3Kα; type: biochemical; conditions: average of three determinations
Method: Compounds H7 and H10 had excellent antiproliferative activity and were further screened out for kinase inhibition testing. We evaluated compounds H7 and H10 with EGFR^T790M/L858R kinases and PI3Kα kinases.
The specific operation was carried out according to our previous research.

[7] = biological target: EGFR^T790M/L858R (Homo sapiens, UniProt P00533, L858R/T790M); test: Kinase-Glo Luminescent Kinase Assay, EGFR T790M/L858R; type: biochemical; conditions: average of three determinations
[8] = system: HCC827 (EGFR^dell19) cells; conditions: quoted in the introduction; read-out: IC50 against HCC827 (EGFR^dell19) cells; cited from earlier work
[9] = system: A549 (EGFR^WT) cells; conditions: quoted in the introduction; read-out: IC50 against A549 (EGFR^WT) cells; cited from earlier work
[10] = system: H1975 (EGFR^L858R/T790M) cells; conditions: quoted in the introduction; read-out: IC50 against H1975 (EGFR^L858R/T790M) cells; cited from earlier work
[11] = quoted in the introduction; cited from earlier work

Chain of PI3Kα (P42336 whole entry): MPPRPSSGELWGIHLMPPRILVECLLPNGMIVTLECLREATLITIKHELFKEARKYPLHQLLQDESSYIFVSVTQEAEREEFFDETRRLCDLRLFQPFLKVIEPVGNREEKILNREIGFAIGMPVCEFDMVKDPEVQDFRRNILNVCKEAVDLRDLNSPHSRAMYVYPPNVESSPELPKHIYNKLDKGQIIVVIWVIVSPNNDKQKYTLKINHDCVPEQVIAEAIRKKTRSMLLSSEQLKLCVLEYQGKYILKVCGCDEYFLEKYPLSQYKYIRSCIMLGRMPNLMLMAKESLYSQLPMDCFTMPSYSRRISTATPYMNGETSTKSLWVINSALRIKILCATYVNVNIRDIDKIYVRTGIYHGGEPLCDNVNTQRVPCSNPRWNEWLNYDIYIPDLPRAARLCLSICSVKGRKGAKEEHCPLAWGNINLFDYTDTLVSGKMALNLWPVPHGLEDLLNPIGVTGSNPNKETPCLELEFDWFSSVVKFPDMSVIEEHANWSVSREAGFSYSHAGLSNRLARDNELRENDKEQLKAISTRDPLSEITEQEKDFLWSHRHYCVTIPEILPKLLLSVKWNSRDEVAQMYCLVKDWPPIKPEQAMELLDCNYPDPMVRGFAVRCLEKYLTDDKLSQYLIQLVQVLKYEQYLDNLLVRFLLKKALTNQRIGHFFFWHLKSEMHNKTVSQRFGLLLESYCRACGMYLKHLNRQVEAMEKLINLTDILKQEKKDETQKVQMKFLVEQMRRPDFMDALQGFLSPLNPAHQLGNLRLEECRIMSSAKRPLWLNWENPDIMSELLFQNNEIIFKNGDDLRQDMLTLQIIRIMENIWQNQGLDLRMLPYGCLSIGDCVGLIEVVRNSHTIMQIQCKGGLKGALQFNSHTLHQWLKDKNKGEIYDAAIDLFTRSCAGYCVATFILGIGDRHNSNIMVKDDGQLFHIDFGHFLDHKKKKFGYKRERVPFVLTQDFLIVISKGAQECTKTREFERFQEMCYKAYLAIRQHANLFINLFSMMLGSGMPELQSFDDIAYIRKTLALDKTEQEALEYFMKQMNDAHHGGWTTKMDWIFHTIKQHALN
Chain of PI3Kα (P27986 whole entry partner): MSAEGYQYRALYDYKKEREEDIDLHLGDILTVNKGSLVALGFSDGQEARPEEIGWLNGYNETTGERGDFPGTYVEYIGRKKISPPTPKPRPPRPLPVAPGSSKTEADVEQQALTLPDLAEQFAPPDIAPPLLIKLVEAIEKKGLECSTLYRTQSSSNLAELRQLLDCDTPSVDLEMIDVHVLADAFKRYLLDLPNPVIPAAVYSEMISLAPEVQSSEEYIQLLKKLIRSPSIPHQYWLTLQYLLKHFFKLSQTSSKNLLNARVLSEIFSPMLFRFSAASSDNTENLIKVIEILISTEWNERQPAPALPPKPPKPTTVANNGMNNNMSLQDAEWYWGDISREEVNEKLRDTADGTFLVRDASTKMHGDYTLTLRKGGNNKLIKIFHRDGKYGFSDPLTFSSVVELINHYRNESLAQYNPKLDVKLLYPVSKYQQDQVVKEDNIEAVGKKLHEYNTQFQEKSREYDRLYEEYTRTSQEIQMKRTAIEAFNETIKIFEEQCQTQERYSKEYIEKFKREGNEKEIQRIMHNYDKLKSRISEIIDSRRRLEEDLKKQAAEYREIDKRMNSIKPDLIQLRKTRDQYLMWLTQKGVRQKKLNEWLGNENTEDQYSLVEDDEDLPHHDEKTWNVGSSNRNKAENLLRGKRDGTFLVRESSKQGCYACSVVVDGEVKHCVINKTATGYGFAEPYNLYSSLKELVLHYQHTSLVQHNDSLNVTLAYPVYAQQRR
Chain of EGFR^T790M/L858R (P00533 25-1210 T790M/L858R): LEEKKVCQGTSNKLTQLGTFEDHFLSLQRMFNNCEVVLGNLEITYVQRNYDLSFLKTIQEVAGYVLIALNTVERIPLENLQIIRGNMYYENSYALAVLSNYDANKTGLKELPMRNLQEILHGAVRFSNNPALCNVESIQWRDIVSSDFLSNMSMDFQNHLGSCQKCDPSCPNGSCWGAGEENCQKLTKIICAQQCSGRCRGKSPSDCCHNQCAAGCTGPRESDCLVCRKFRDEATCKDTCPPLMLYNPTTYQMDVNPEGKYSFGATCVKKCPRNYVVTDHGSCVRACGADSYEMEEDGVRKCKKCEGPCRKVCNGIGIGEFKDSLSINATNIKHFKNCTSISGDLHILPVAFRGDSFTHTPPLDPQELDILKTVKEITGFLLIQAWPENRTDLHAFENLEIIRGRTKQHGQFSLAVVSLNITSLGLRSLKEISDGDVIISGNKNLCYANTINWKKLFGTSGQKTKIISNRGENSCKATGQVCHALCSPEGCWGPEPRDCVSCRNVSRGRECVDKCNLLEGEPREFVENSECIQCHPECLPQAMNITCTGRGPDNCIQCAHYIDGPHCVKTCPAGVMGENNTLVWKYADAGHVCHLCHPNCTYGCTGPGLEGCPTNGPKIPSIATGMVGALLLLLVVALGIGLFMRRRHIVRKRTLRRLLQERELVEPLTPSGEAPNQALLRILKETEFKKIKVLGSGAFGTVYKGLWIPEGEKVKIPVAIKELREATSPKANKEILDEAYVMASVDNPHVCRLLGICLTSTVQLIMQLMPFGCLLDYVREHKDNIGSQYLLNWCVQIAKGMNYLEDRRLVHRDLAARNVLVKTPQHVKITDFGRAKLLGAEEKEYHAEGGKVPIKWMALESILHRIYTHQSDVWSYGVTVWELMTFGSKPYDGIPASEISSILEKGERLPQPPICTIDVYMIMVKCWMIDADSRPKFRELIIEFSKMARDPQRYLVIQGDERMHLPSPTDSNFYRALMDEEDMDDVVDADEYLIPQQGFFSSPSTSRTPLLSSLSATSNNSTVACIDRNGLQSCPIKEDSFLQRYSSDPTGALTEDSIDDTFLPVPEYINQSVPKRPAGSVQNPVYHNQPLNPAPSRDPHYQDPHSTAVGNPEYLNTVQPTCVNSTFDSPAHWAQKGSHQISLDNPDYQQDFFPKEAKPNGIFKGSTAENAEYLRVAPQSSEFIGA

| Compound | IC50 [1] [µM] | IC50 [2] [µM] | IC50 [3] [µM] | Selectivity IC50(LO2)/IC50(A549) [3] | IC50 [4] [µM] | IC50 [5] [µM] | melting point [°C] | IC50 [6] [µM] | IC50 [7] [nM] | Selectivity (A549 vs LO2) relative to that of olmutinib ([3]; fold of the selectivity of the lead compound olmutinib) | IC50 [8] [nM] | IC50 [9] [nM] | IC50 [10] [nM] | toxic side effects [11] |
| --- | --- | --- | --- | --- | --- | --- | --- | --- | --- | --- | --- | --- | --- | --- |
| C=CC(=O)Nc1cccc(Oc2cc(-c3cccs3)nc(Nc3cccc(C#N)c3)n2)c1 [Compound H1, N-(3-((2-((3-cyanophenyl)amino)-6-(thiophen-2-yl)pyrimidin-4-yl)oxy)phenyl)acrylamide] | 13.1 ± 1.17 | 9.64 ± 1.01 | > 100 | >22.57 | 19 ± 1.71 | 4.43 ± 0.5 | – | – | – | – | – | – | – | – |
| C/C=C/C(=O)Nc1cccc(Oc2cc(-c3cccs3)nc(Nc3cccc(C#N)c3)n2)c1 [Compound H2, (E)-N-(3-((2-((3-cyanophenyl)amino)-6-(thiophen-2-yl)pyrimidin-4-yl)oxy)phenyl)but-2-enamide] | 16.4 ± 0.98 | 12.5 ± 1.09 | 87.9 ± 1.67 | 8.38 | 14.6 ± 1.19 | 10.5 ± 1.17 | 201.2 to 205.9 | – | – | – | – | – | – | – |
| CC(C)=CC(=O)Nc1cccc(Oc2cc(-c3cccs3)nc(Nc3cccc(C#N)c3)n2)c1 [Compound H3, N-(3-((2-((3-cyanophenyl)amino)-6-(thiophen-2-yl)pyrimidin-4-yl)oxy)phenyl)-3-methylbut-2-enamide] | 25.8 ± 1.38 | 21.9 ± 1.33 | > 100 | >3.61 | 35.8 ± 1.64 | 27.7 ± 1.24 | 215.5 to 218.7 | – | – | – | – | – | – | – |
| CCC/C=C/C(=O)Nc1cccc(Oc2cc(-c3cccs3)nc(Nc3cccc(C#N)c3)n2)c1 [Compound H4, (E)-N-(3-((2-((3-cyanophenyl)amino)-6-(thiophen-2-yl)pyrimidin-4-yl)oxy)phenyl)hex-2-enamide] | 23.4 ± 1.49 | 25.1 ± 1.3 | > 100 | >2.70 | 27 ± 1.63 | 37.1 ± 1.19 | 209.6 to 211.4 | – | – | – | – | – | – | – |
| C=C(F)C(=O)Nc1cccc(Oc2cc(-c3cccs3)nc(Nc3cccc(C#N)c3)n2)c1 [Compound H5, N-(3-((2-((3-cyanophenyl)amino)-6-(thiophen-2-yl)pyrimidin-4-yl)oxy)phenyl)-2-fluoroacrylamide] | > 100 | > 100 | > 100 | – | > 100 | > 100 | 222.9 to 226.8 | – | – | – | – | – | – | – |
| CC(C)/C=C/C(=O)Nc1cccc(Oc2cc(-c3cccs3)nc(Nc3cccc(C#N)c3)n2)c1 [Compound H6, (E)-N-(3-((2-((3-cyanophenyl)amino)-6-(thiophen-2-yl)pyrimidin-4-yl)oxy)phenyl)-4-methylpent-2-enamide] | 18.1 ± 0.71 | 11.9 ± 1.11 | > 100 | >6.43 | 17.7 ± 1.01 | 15.6 ± 0.81 | 223.1 to 225.4 | – | – | – | – | – | – | – |
| C/C=C/C(=O)Nc1cccc(Oc2cc(-c3cccs3)nc(Nc3cccc(OC)c3)n2)c1 [Compound H7, (E)-N-(3-((2-((3-methoxyphenyl)amino)-6-(thiophen-2-yl)pyrimidin-4-yl)oxy)phenyl)but-2-enamide] | 13.5 ± 0.52 | 4.59 ± 0.46 | > 100 | >22.88 | 19.2 ± 1.12 | 4.37 ± 0.5 | 231.7 to 234.3 | > 10 | 630 | – | – | – | – | – |
| COc1cccc(Nc2nc(Oc3cccc(NC(=O)/C=C/C(C)C)c3)cc(-c3cccs3)n2)c1 [Compound H8, (E)-N-(3-((2-((3-methoxyphenyl)amino)-6-(thiophen-2-yl)pyrimidin-4-yl)oxy)phenyl)-4-methylpent-2-enamide] | 24.1 ± 1.28 | 21.5 ± 1.21 | > 100 | >5.26 | 49.1 ± 2.13 | 19 ± 1.34 | 217.9 to 219.1 | – | – | – | – | – | – | – |
| C=CC(=O)Nc1cccc(Oc2nc(-c3ccc(CN(C)C)s3)nc(N3CCOCC3)n2)c1 [Compound H9, N-(3-((4-(5-((dimethylamino)methyl)thiophen-2-yl)-6-morpholino-1,3,5-triazin-2-yl)oxy)phenyl)acrylamide] | 28.2 ± 1.78 | 12.8 ± 1.25 | > 100 | – | 53.9 ± 1.73 | 23.5 ± 1.43 | – | – | – | – | – | – | – | – |
| C/C=C/C(=O)Nc1cccc(Oc2nc(-c3ccc(CN(C)C)s3)nc(N3CCOCC3)n2)c1 [Compound H10, (E)-N-(3-((4-(5-((dimethylamino)methyl)thiophen-2-yl)-6-morpholino-1,3,5-triazin-2-yl)oxy)phenyl)but-2-enamide] | 10.7 ± 2.02 | 1.16 ± 1.53 | > 100 | >29.76 | 13.1 ± 1.36 | 3.36 ± 1.59 | 202.4 to 203.7 | 8.56 | 250 | about 5 times | – | – | – | – |
| CC(C)=CC(=O)Nc1cccc(Oc2nc(-c3ccc(CN(C)C)s3)nc(N3CCOCC3)n2)c1 [Compound H11, N-(3-((4-(5-((dimethylamino)methyl)thiophen-2-yl)-6-morpholino-1,3,5-triazin-2-yl)oxy)phenyl)-3-methylbut-2-enamide] | 19.7 ± 1.16 | 5.57 ± 1.53 | > 100 | >7.39 | 25.8 ± 1.31 | 13.5 ± 1.13 | – | – | – | – | – | – | – | – |
| CC(C)/C=C/C(=O)Nc1cccc(Oc2nc(-c3ccc(CN(C)C)s3)nc(N3CCOCC3)n2)c1 [Compound H12, (E)-N-(3-((4-(5-((dimethylamino)methyl)thiophen-2-yl)-6-morpholino-1,3,5-triazin-2-yl)oxy)phenyl)-4-methylpent-2-enamide] | 23.8 ± 2.05 | 13.6 ± 1.94 | > 100 | >4.57 | 64 ± 1.8 | 21.9 ± 1.54 | 199.7 to 201.3 | – | – | – | – | – | – | – |
| C=C(C)C(=O)Nc1cccc(Oc2nc(-c3ccc(CN(CC)CC)s3)nc(N3CCOCC3)n2)c1 [Compound H13, N-(3-((4-(5-((diethylamino)methyl)thiophen-2-yl)-6-morpholino-1,3,5-triazin-2-yl)oxy)phenyl)methacrylamide] | 54.5 ± 2.86 | 21.5 ± 1.21 | > 100 | – | 32.5 ± 1.73 | 23.4 ± 1.89 | – | – | – | – | – | – | – | – |
| C/C=C/C(=O)Nc1cccc(Oc2nc(-c3ccc(CN(CC)CC)s3)nc(N3CCOCC3)n2)c1 [Compound H14, (E)-N-(3-((4-(5-((diethylamino)methyl)thiophen-2-yl)-6-morpholino-1,3,5-triazin-2-yl)oxy)phenyl)but-2-enamide] | 46.2 ± 1.43 | 17.8 ± 1.34 | > 100 | – | 41.6 ± 1.61 | 20.6 ± 2.3 | – | – | – | – | – | – | – | – |
| CCN(CC)Cc1ccc(-c2nc(Oc3cccc(NC(=O)C=C(C)C)c3)nc(N3CCOCC3)n2)s1 [Compound H15, N-(3-((4-(5-((diethylamino)methyl)thiophen-2-yl)-6-morpholino-1,3,5-triazin-2-yl)oxy)phenyl)-3-methylbut-2-enamide] | 62.4 ± 2.94 | 19.5 ± 1.55 | > 100 | >4.68 | 38.5 ± 1.78 | 21.4 ± 1.58 | 215.2 to 217.1 | – | – | – | – | – | – | – |
| CCN(CC)Cc1ccc(-c2nc(Oc3cccc(NC(=O)/C=C/C(C)C)c3)nc(N3CCOCC3)n2)s1 [Compound H16, (E)-N-(3-((4-(5-((diethylamino)methyl)thiophen-2-yl)-6-morpholino-1,3,5-triazin-2-yl)oxy)phenyl)-4-methylpent-2-enamide] | 30.3 ± 1.68 | 15.6 ± 2.55 | > 100 | >2.77 | 51.8 ± 1.27 | 36.1 ± 1.61 | – | – | – | – | – | – | – | – |
| C=CC(=O)Nc1cccc(Oc2nc(Nc3ccc(N4CCN(C)CC4)cc3)nc3ccsc23)c1 [Olmutinib, olmutinib, reference compound] | 5.29 ± 0.59 | 0.52 ± 0.1 | 25.8 ± 1.31 | – | 26.9 ± 0.93 | 4.29 ± 0.21 | – | > 10 | – | – | 9.2 | 225 | 10 | palmoplantar keratoderma and diarrhea |
